Results published in ChEMBL document CHEMBL1201862, “PubChem BioAssay data set” (2004).
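Following 48 hours of exposure in 96-well plates, responses at five concentrations were used to interpolate endpoints linearly. GI50 is the concentration that inhibits growth by half.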 The source made the active and inactive calls. Rule as the data show it: active = GI50 up to about 1.1 µM and inactive = higher.

Columns and labels:
Test in all cases: DTP human tumour cell line panel, 48 h
[1] = system: HOP-18
[2] = system: SF-268
[3] = system: OVCAR-8
[4] = system: SNB-75
[5] = system: A549
[6] = system: SF-539
[7] = system: HOP-92
[8] = system: OVCAR-4
[9] = system: K562
[10] = system: HT-29
[11] = system: CAKI-1
[12] = system: SF-295
[13] = system: RXF 393
[14] = system: M14
[15] = system: SK-OV-3
[16] = system: HL-60
[17] = system: Malme-3M
[18] = system: IGROV-1

Measured: GI50

COc1ccc(-c2cc(O)c3cc4c(cc3n2)OCO4)cc1OC
inactive: [1] > 100 µM | [2] > 100 µM | [3] > 100 µM | [4] > 100 µM | [5] > 100 µM | [6] > 100 µM | [7] > 100 µM | [8] > 100 µM | [9] > 100 µM | [10] > 100 µM | [11] > 100 µM | [12] > 100 µM | [13] > 100 µM | [14] > 100 µM | [15] > 100 µM | [16] > 100 µM | [17] > 100 µM | [18] > 100 µM

O=C(O/N=C1/CCC/C1=C\c1ccccc1)c1ccc([N+](=O)[O-])cc1
inactive: [1] > 100 µM | [2] 71.6 µM | [3] > 100 µM | [4] 31.6 µM | [5] > 100 µM | [6] 89.3 µM | [7] > 100 µM | [8] > 100 µM | [9] > 100 µM | [10] > 100 µM | [11] > 100 µM | [12] > 100 µM | [13] 84.7 µM | [14] > 100 µM | [15] > 100 µM | [16] > 100 µM | [17] > 100 µM | [18] > 100 µM

COc1ccc2c(c1)C(=O)Cc1ccccc1CC2
inactive: [1] > 100 µM | [2] > 100 µM | [3] > 100 µM | [4] 27.7 µM | [5] > 100 µM | [6] > 100 µM | [7] > 100 µM | [8] > 100 µM | [9] > 100 µM | [10] > 100 µM | [11] > 100 µM | [12] > 100 µM | [13] > 100 µM | [14] > 100 µM | [15] > 100 µM | [16] > 100 µM | [17] > 100 µM | [18] > 100 µM

CC(CNCCCNCCNCCCNCO)[N+](=O)[O-] (centres undefined)
inactive: [1] 14.7 µM | [2] 15.7 µM | [3] 14.4 µM | [4] 20.8 µM | [5] 21.9 µM | [6] 15.4 µM | [7] 2.65 µM | [8] 14.5 µM | [9] 3.44 µM | [10] 21.3 µM | [11] 6.11 µM | [12] > 100 µM | [13] 15.8 µM | [14] 11.4 µM | [15] > 100 µM | [16] 3.89 µM | [17] 2.07 µM | [18] 20.4 µM

C=C1C(=O)C23[C@H](O)C1CC[C@H]2[C@]12COC3(O)[C@@H](O)[C@@H]1C(C)(C)CC[C@@H]2O
inactive: [1] 12.2 µM | [2] 4.76 µM | [3] 13.4 µM | [4] 20.4 µM | [5] 23.3 µM | [6] 6.98 µM | [7] 3.95 µM | [8] 18 µM | [9] 3.09 µM | [10] 14.4 µM | [11] 1.98 µM | [12] 17.6 µM | [13] 2.57 µM | [14] 5.57 µM | [15] 17.1 µM | [16] 4.27 µM | [17] 2.49 µM | [18] 21.4 µM

COc1cc(-c2cc(CCC(=O)Nc3ccccc3[N+](=O)[O-])n(-c3ccc([N+](=O)[O-])cc3[N+](=O)[O-])n2)ccc1O
inactive: [1] > 10 µM | [2] > 10 µM | [3] > 10 µM | [4] 89.9 µM | [5] > 10 µM | [6] > 10 µM | [7] > 10 µM | [8] > 10 µM | [9] 82.6 µM | [10] > 10 µM | [11] > 10 µM | [12] > 10 µM | [13] > 10 µM | [14] > 10 µM | [15] > 10 µM | [16] > 10 µM | [17] > 10 µM | [18] > 10 µM

COc1cccc(N2C(=O)C3C4C=C5c6ccccc6N(c6ccccc6)C5(C3C2=O)[C@H]2C(=O)N(c3cccc(OC)c3)C(=O)[C@@H]42)c1 (some centres undefined)
inactive: [1] > 100 µM | [2] > 100 µM | [3] > 100 µM | [4] > 100 µM | [5] > 100 µM | [6] > 100 µM | [7] > 100 µM | [8] > 100 µM | [9] > 100 µM | [10] > 100 µM | [11] > 100 µM | [12] > 100 µM | [13] > 100 µM | [14] > 100 µM | [15] > 100 µM | [16] > 100 µM | [17] > 100 µM | [18] > 100 µM

COc1cc2c(cc1O)[C@H](C)C(c1ccc(OC)c(OC)c1)O2 (some centres undefined)
inactive: [1] 4.36 µM | [2] 44.4 µM | [3] 13.2 µM | [4] 1.95 µM | [5] 7.24 µM | [6] 4.85 µM | [7] 10.4 µM | [8] 13 µM | [9] 2.98 µM | [10] 18 µM | [11] 3.67 µM | [12] 6.56 µM | [13] 11.7 µM | [14] 4.68 µM | [15] 9.48 µM | [16] 3.41 µM | [17] 10.3 µM | [18] 2.04 µM
